Assay results published in article PMC4467461, “Small-molecule activation of SERCA2a SUMOylation for the treatment of heart failure” (Nature Communications, 2015).

System: TAC mice
Test: Dobutamine contractile response in TAC and sham mice
Format: in vivo
Settings: TAC versus sham mice, 3, 6, 10 ng/BW g
Description: TAC mice and sham control. n = 5 (TAC) and n = 3 (sham operated). LVIDd, LV internal diameter during diastole; LVIDs, LV internal diameter during systole; FS, fractional shortening; EF, ejection fraction. (e) SERCA2a protein levels were detected by Western blot analysis. 15 µg of tissue extracts was separated on 7.5% SDS-PAGE gels, transferred to nitrocellulose membrane and blotted with anti-SERCA2a antibody. Band intensity was quantified by Image J software. The amount of GAPDH was used as a normalization control. (f) Dobutamine was infused to test contractile response to β-agonist stimulation in TAC and sham operated animals.
LV pressure rise rate (+dP/dt max) was measured in response to different dose of dobutamine stimulation. Dose-dependent dobutamine response was blunted in TAC animals. n = 3 mice per each dose. Data are represented as mean ± SEM. * p < 0.05 versus baseline (Student’s t-test).

CC(CCc1ccc(O)cc1)NCCc1ccc(O)c(O)c1 (centres unmarked) [dobutamine]
contractile / chronotropic response (+dP/dt max) to dobutamine: significantly abrogated | contractile / chronotropic response (+dP/dt max) to dobutamine (listed as Dobutamine): blunted
